From article PMC4765733 (Journal of medicinal chemistry, 2015)

What was measured:
[1] = system: HIV-1LAI; experiment: Antiviral MTT assay, MT-2 cells exposed to HIV-1LAI; type: cell-based; conditions: Human immunodeficiency virus 1, MT2, read-out: IC50 (antiviral activity)
[2] = system: HIV-1ERS104pre (wild type); experiment: Antiviral p24 Gag assay in PHA-PBMs, wild-type HIV-1ERS104pre; type: cell-based

## CC(C)CN(C[C@@H](O)[C@H](Cc1ccccc1)NC(=O)O[C@H]1CO[C@H]2OCC[C@H]21)S(=O)(=O)c1ccc(N)cc1 [Darunavir]
[1]
  IC50: 3 nM

## COc1ccc(S(=O)(=O)N(CC(C)C)C[C@@H](O)[C@H](Cc2cccc(-c3ccccc3OC)c2)NC(=O)O[C@H]2CO[C@H]3OCC[C@H]32)cc1 [Inhibitor 21e, (3R,3aS,6aR)-hexahydrofuro[2,3-b]furan-3-yl-((2S,3R)-3-hydroxy-4-(N-isobutyl-4-methoxyphenylsulfonamido)-1-(2'-methoxy-[1,1'-biphenyl]-3-yl)butan-2-yl)carbamate]
[2]
  EC50 fold better than APV: ~10 fold
